According to article PMC7906020, “Trp-Containing Antibacterial Peptides Impair Quorum Sensing and Biofilm Development in Multidrug-Resistant Pseudomonas aeruginosa and Exhibit Synergistic Effects With Antibiotics” (Frontiers in Microbiology, 2021):
In brackets after ≈: the same amount, converted by molar mass. Peptide text beside a SMILES is read from it.

Assays:
[1] = test system: LasB elastase of MRPA0108; experiment: LasB elastase activity, elastin-Congo red method; format: cell-based, Pseudomonas aeruginosa; details: peptide at 1/4 × MIC, 24 h, 37°C; ECR substrate, OD495/OD600; vs control; triplicate
Description: The culture supernatant was obtained after centrifugation at 12,000×g for 10 min. (1) LasB elastase activity was measured using elastin-Congo red (ECR) as the substrate, as described by [Pattnaik et al. (2018)]. Briefly, 100 μl of the culture supernatant was added to 900 μl of ECR buffer (100 mM Tris-HCl, 1 mM CaCl2, pH 7.5) containing 10 mg of ECR and then incubated with shaking at 37°C for 18 h. Then, 100 μl of 0.12 M EDTA was added to stop the reaction. The insoluble ECR was removed by centrifugation, and the supernatant absorbance was measured at 495 nm. The optical density (OD) 495 nm/OD 600 nm represents the elastase activity. (2) LasA protease activity was measured as follows ([Pattnaik et al., 2018]): first, the culture supernatant was filtered to remove the bacterial cells, and then 150 μl of sterile-filtered supernatant was added to 2% azocasein (prepared in 50 mM Tris-HCl) and incubated for 4 h at 37°C. Trichloroacetic acid (TCA, 10%) was added to precipitate the undigested substrate. After centrifugation at 10,000 rpm for 10 min, 1 M NaOH was added to the supernatant, and the relative protease activity was measured at OD 440 nm. (3) The pyocyanin assay was based on the absorbance of excreted pyocyanin at 520 nm in an acidic solution ([Kong et al., 2005]). Three milliliters of culture supernatant were mixed with 2 ml of chloroform for 20 min, and then the pyocyanin from the chloroform phase was reextracted using 0.2 M HCl for 15 min to obtain a pink-colored pyocyanin solution. The OD 520 nm was measured to evaluate the change in pyocyanin content. (4) Rhamnolipid detection was carried out as previously described ([Wittgens et al., 2011]). Briefly, 500 μl of culture supernatant was mixed with 500 μl of ethyl acetate and vortexed vigorously for 15 s to extract rhamnolipid. After centrifugation at 10,000×g for 5 min at 4°C, the organic phase containing rhamnolipids was obtained and evaporated at room temperature overnight. […] The absorbance was measured at 420 nm. (5) The level of C4-HSL was quantified by GC-MS as previously described ([Guo et al., 2012]).

[2] = test system: rhamnolipid production in MRPA0108; experiment: Rhamnolipid production, orcinol method; format: cell-based, Pseudomonas aeruginosa; details: peptide at 1/4 × MIC, 24 h, absorbance 420 nm, vs control, triplicate
Description: The culture supernatant was obtained after centrifugation at 12,000×g for 10 min. (1) LasB elastase activity was measured using elastin-Congo red (ECR) as the substrate, as described by [Pattnaik et al. (2018)]. Briefly, 100 μl of the culture supernatant was added to 900 μl of ECR buffer (100 mM Tris-HCl, 1 mM CaCl2, pH 7.5) containing 10 mg of ECR and then incubated with shaking at 37°C for 18 h. Then, 100 μl of 0.12 M EDTA was added to stop the reaction. The insoluble ECR was removed by centrifugation, and the supernatant absorbance was measured at 495 nm. The optical density (OD) 495 nm/OD 600 nm represents the elastase activity. (2) LasA protease activity was measured as follows ([Pattnaik et al., 2018]): first, the culture supernatant was filtered to remove the bacterial cells, and then 150 μl of sterile-filtered supernatant was added to 2% azocasein (prepared in 50 mM Tris-HCl) and incubated for 4 h at 37°C. Trichloroacetic acid (TCA, 10%) was added to precipitate the undigested substrate. After centrifugation at 10,000 rpm for 10 min, 1 M NaOH was added to the supernatant, and the relative protease activity was measured at OD 440 nm. (3) The pyocyanin assay was based on the absorbance of excreted pyocyanin at 520 nm in an acidic solution ([Kong et al., 2005]). Three milliliters of culture supernatant were mixed with 2 ml of chloroform for 20 min, and then the pyocyanin from the chloroform phase was reextracted using 0.2 M HCl for 15 min to obtain a pink-colored pyocyanin solution. The OD 520 nm was measured to evaluate the change in pyocyanin content. (4) Rhamnolipid detection was carried out as previously described ([Wittgens et al., 2011]). Briefly, 500 μl of culture supernatant was mixed with 500 μl of ethyl acetate and vortexed vigorously for 15 s to extract rhamnolipid. After centrifugation at 10,000×g for 5 min at 4°C, the organic phase containing rhamnolipids was obtained and evaporated at room temperature overnight. The rhamnolipid extract dissolved in ultrapure water was mixed with orcinol reagent (0.19% orcinol in 53% H2SO4) and incubated at 80°C for 30 min. The absorbance was measured at 420 nm. (5) The level of C4-HSL was quantified by GC-MS as previously described ([Guo et al., 2012]).

[3] = test system: MRPA0108 biofilms; experiment: Confocal laser scanning microscopy of biofilms (LIVE/DEAD staining); format: cell-based, Pseudomonas aeruginosa; details: 24 h; for percentage of dead/live cells in biofilm: SYTO9/PI, control 8.7%
Description: Biofilms of MRPA0108 were visualized by confocal microscopy. Mid-log growth-phase bacteria were diluted to 1 × 10^7 CFU/ml. […] LB liquid medium and erythromycin were used as negative and positive controls, respectively. After incubation, the supernatant was removed, and the slides were washed and stained in a dark environment for 30 min using a LIVE/DEAD BacLight^TM Bacterial Viability Kit (Invitrogen, Life Technologies, Shanghai, China). The slides were washed three times and imaged with a confocal laser scanning microscope (LSM 710, Carl Zeiss, Germany) with excitation/emission wavelengths of 480/500 and 490/635 nm for SYTO9 and propidium iodide (PI), respectively. SYTO9 was used to indicate live bacteria, and PI was used to mark dead bacteria.

[4] = test system: exopolysaccharide production in MRPA0108; experiment: Exopolysaccharide determination, phenol-H2SO4 method; format: cell-based, Pseudomonas aeruginosa; details: phenol-H2SO4, 490 nm
Description: (§1) Exopolysaccharides were determined using the phenol-H2SO4 method. Briefly, after incubation, the cultures were centrifuged at 10,000 rpm for 15 min, and the pellets were resuspended in high-salt buffer (10 mM KPO4, 5 mM NaCl, 2.5 mM MgSO4, pH 7.0), followed by recentrifugation at 10,000 rpm for 30 min. The resulting supernatant was mixed with three volumes of chilled ethanol (100%) and incubated overnight at 4°C. The precipitated exopolysaccharide was added to a mixture containing cold phenol and H2SO4, and the absorbance of the solution was measured at 490 nm. Alginate content was determined using the H2SO4-carbazole method. Briefly, after incubation, the precooled cultures were mixed with an H2SO4 solution (4:1) and vortexed in ice water, and then 0.2% carbazole dissolved in ethanol was added. The mixture was revortexed and incubated at 55°C for 30 min, and the OD 530 nm was measured.

[5] = test system: alginate production in MRPA0108; experiment: Alginate determination, H2SO4-carbazole method; format: cell-based, Pseudomonas aeruginosa; details: OD 530 nm
Description: as §1

[6] = test system: MRPA0108 strain; details: previous study, ref Han et al., 2020; cited from earlier work
Source text: Supplement Table_1.docx, table 1: Table S1 Biological characteristics and antibacterial activities of the Trp-containing antimicrobial peptides (32) | column: MIC(μM)

[7] = cited from earlier work
Source text: Supplement Table_1.docx, table 1: Table S1 Biological characteristics and antibacterial activities of the Trp-containing antimicrobial peptides (32) | column: Hemolysis (μM)

[8] = test system: MRPA0108 strain; experiment: MIC of antibiotics alone and in combination with 1/4 × MIC peptide; format: cell-based, Pseudomonas aeruginosa; details: for fold reduction of MIC of the antibiotic: antibiotic in combination with Trp-containing peptides at 1/4 × MIC, range over the peptides
Description: FIGURE 6 Antibacterial activity of antibiotics in combination with the Trp-containing peptides. Bacterial cultures were treated with a series of concentration of antibiotics ceftazidime (A), piperacillin (B), and levofloxacin (C) in the absence (control) and presence of a 1/4 × MIC peptide concentration at 37C overnight. The OD600 was recorded using a microtiter plate reader. The MIC was defined as the lowest antibiotics concentration that inhibited 95% of the bacterial growth. Phenylalanyl arginyl β-naphthylamide (PAβN), a broad-spectrum inhibitor for efflux pump, was used as a positive control. Each data point represents an average of six independent experiments. *P < 0.05 and **P < 0.01 indicate statistically significant differences between antibiotics alone and antibiotics in combination with peptide.

[9] = test system: β-lactamase activity in MRPA0108 cells; experiment: β-Lactamase activity assay (nitrocefin kit) in treated cells; format: cell-based, Pseudomonas aeruginosa; details: MRPA0108 cells treated with antibiotic alone, compared to control
Description: β-lactamase activity was measured by using a β-lactamase assay kit (YIASEN Biotech Co., Ltd., Shanghai, China) according to the manufacturer’s instructions. Briefly, mid-log growth-phase bacteria were diluted to 1 × 10^8 CFU/ml and treated with I1W or L12W at concentrations ranging from 3.13 to 50 μM for 12 h at 37°C. After induction, the cultures were harvested by centrifugation at 5,000 rpm at 4°C, washed three times with PBS buffer (pH 7.2), and then resuspended in the same buffer. The cells were sonicated on ice for 15 min, and the cell lysates containing β-lactamase were collected by centrifugation at 12,000 rpm for 30 min at 4°C. Fifty microliters of the prepared β-lactamase-containing lysates was mixed with 50 μl of assay buffer containing nitrocefin and reacted at room temperature in a dark environment for 20 min. Nitrocefin hydrolysis was measured spectrophotometrically at 490 nm. Concurrently, the total protein content was determined with a Bradford assay using the same supernatant. One milliunit of β-lactamase is defined as 1 nanomole of nitrocefin hydrolyzed per minute per microgram of protein.

[10] = lowest concentration inhibiting 95% of growth, overnight 37°C, six experiments

CC[C@H](C)[C@H](N)C(=O)N[C@@H](CCCCN)C(=O)N[C@@H](CCCCN)C(=O)N[C@@H](Cc1c[nH]c2ccccc12)C(=O)N[C@@H](CC(C)C)C(=O)N[C@@H](CO)C(=O)N[C@@H](CCCCN)C(=O)N[C@H](C(=O)N[C@@H](CCCCN)C(=O)N[C@@H](CCCCN)C(=O)N[C@@H](CC(C)C)C(=O)N[C@@H](CC(C)C)C(=O)N[C@@H](CCCCN)C(N)=O)[C@@H](C)CC [I4W] (H-IKKWLSKIKKLLK-NH2; N-terminus and C-terminus assumed)
decrease of LasB elastase activity [1]: 22.3% | inhibition of rhamnolipid production [2]: 43.9% | average biofilm thickness ([3]; after treatment with low concentrations of peptide (1 × MIC or 2 × MIC), 37°C, control biofilm 6 μm): 1.5–2.5 μm | percentage of dead/live cells in biofilm ([3]; peptide at 1 × MIC): 31.2% | percentage of dead/live cells in biofilm ([3]; peptide at 2 × MIC): 41.7% | reduction of exopolysaccharide production ([4]; peptide at 1/4 × MIC, overnight 37°C): 25.0% | reduction of exopolysaccharide production ([4]; peptide at 1 × MIC): 65.2% | reduction of exopolysaccharide production ([4]; peptide concentration increased onefold from 1/4 × MIC): 42.4% | inhibition of alginate production ([5]; peptide at 1/4 × MIC): 47% | inhibition of alginate production ([5]; peptide at 1 × MIC): 68% | MIC [6]: 6.25 µM (≈ 10.2 µg/mL) | Hemolysis [7]: > 500 µM

CC(C)(O/N=C(\C(=O)N[C@@H]1C(=O)N2C(C(=O)[O-])=C(C[n+]3ccccc3)CS[C@H]12)c1csc(N)n1)C(=O)O [ceftazidime]
fold reduction of MIC of the antibiotic [8]: 8–32 fold | MIC of antibiotic alone [8, 10]: 30 µM | MIC of antibiotic in combination with 1/4 × MIC L12W [8, 10]: 0.94 µM | increase of β-lactamase activity [9]: fourfold

C[C@H]1COc2c(N3CCN(C)CC3)c(F)cc3c(=O)c(C(=O)O)cn1c23 [levofloxacin]
fold reduction of MIC of the antibiotic [8]: 0–4 fold

CCN1CCN(C(=O)N[C@@H](C(=O)N[C@@H]2C(=O)N3[C@@H]2SC(C)(C)[C@@H]3C(=O)O)c2ccccc2)C(=O)C1=O [piperacillin, reference compound]
fold reduction of MIC of the antibiotic [8]: 2–11 fold | increase of β-lactamase activity [9]: 1.8 fold
